Bridge positions count the residues as written; N and C are the ends. Peptide text beside a SMILES is read from it.
Columns and labels:
Male ICR mice = assay: Wheel running test; assay type: in vivo, mouse; details: i.c.v.; 4 min, immediately after EPM
Protocol: We performed mouse behavioral experiments in accordance with our previous study. Male ICR mice (n = 199 in total) aged 5 weeks old were purchased from Shimizu Laboratory Supplies (Kyoto, Japan) and maintained in an animal facility for 7–12 days. They had free access to food and water and were kept in a 12-h light/dark cycle (08:00–20:00). Experiments were carried out between 11:00 and 17:00 in a quiet and air-conditioned experimental room, to which mice were habituated for 30–60 min before each experiment. Animal experiments were performed in accordance with the guidelines of the Physiological Society of Japan and were approved by the Committee for Animal Experiments of Kurashiki University of Science and the Arts. Peptides were dissolved in phosphate-buffered saline (PBS). Peptides were injected intracerebroventricularly (i.c.v.) 30 min before behavioral tests (typically 5 μL/mouse), according to a previous study. The mouse was placed into an anesthetizing jar, to which isoflurane (0.2 mL) was added immediately before. […]
Spontaneous motor activity was measured with a multifunctional activity wheel (MK-770, Muromachi Kikai, Tokyo, Japan). […] The number of rotations was counted automatically.

mouse GIRK1/2 = target: T1, mouse GIRK1/2 (Mus musculus, UniProt P48542+P63250); assay: Whole-cell patch-clamp of GIRK1/2 in transfected 293T cells; assay type: cell-based
T1 construct: expressed in transfected cells; host or cells: 293T cells, transient calcium phosphate transfection, pCMV6 plasmid
T1 sequence (P63250 1-501): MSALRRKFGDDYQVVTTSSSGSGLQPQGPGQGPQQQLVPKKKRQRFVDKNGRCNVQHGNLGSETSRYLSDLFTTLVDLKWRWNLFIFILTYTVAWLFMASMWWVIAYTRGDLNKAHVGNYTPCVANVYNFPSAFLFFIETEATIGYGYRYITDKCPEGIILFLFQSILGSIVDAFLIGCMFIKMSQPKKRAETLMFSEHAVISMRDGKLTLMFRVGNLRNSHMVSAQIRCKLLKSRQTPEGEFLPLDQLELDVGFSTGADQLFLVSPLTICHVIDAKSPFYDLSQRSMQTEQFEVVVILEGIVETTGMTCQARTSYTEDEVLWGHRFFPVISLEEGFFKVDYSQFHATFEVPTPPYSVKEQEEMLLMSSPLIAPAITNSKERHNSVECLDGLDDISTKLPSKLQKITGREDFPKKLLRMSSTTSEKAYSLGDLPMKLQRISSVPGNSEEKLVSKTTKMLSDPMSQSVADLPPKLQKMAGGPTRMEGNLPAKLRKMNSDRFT
T1 sequence (P48542 1-425): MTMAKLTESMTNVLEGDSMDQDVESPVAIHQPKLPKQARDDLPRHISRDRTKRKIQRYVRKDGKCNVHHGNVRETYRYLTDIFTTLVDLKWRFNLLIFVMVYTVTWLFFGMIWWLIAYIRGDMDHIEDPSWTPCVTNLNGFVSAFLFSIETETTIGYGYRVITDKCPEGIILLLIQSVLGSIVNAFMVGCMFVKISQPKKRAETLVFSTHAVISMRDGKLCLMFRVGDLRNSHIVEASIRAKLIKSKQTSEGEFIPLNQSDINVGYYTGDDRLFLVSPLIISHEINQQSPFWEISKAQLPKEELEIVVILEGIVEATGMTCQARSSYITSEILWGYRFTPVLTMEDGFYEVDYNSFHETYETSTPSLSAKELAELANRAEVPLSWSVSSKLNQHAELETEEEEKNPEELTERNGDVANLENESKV
Source text: The cDNAs for rat ROMK and mouse GIRK1, 2, and 4 were generously donated by Drs Mikio Hayashi (Kansai Medical University) and David Weaver (Vanderbilt University). The ROMK channels were stably expressed by a cell line, 208–4, which was transduced with lentiviral vectors coexpressing the channel and green fluorescent protein (GFP) as described previously. The GIRK genes, cloned in a pCMV6 plasmid (Origene Technologies Inc, Rockville, MD), were transiently expressed in 293T cells with calcium phosphate transfection. GIRK channel currents were recorded 24 h after transfection.
Cells grown on small cover glasses (3 × 18 mm) were placed in a recording chamber. Whole-cell currents were recorded in Tyrode solution using an Axopatch 200B amplifier (Axon Instruments, Foster City, CA) at 25°C. Tyrode solution contained (in mM): NaCl 140, KCl 5.4, NaH2PO4 0.33, CaCl2 2, MgCl2 1, HEPES 5, and glucose 5.5 (pH 7.4 adjusted with NaOH). […] Whole-cell currents were recorded 60 sec after the peptide application and those from 100 to 300 msec of the step pulses were averaged. […] Whole-cell conductance was calculated as the slope of the current-voltage (I-V) relationship from -140 mV to -100 mV and normalized to the initial value (0 μM TPN), in which BaCl2-resistant current was subtracted and indicted as a percentage.

SMILES | spontaneous rotations in activity wheel (Male ICR mice) | difference in IC50, GIRK1/2 over ROMK (mouse GIRK1/2; ratio of IC50 GIRK1/2 to IC50 ROMK) | IC50 (mouse GIRK1/2; 293T cells transiently expressing mouse GIRK1/2, high K+ Tyrode solution (Fig 7), read-out: IC50, GIRK1/2 conductance)
CC[C@H](C)[C@@H]1NC(=O)[C@H](CCCNC(=N)N)NC(=O)[C@H](CC(N)=O)NC(=O)[C@@H]2CSSC[C@@H](C(=O)NCC(=O)N[C@@H](CCCCN)C(=O)N[C@@H](CCCCN)C(N)=O)NC(=O)[C@H](CCCCN)NC(=O)[C@H](CCCCN)NC(=O)[C@H](Cc3c[nH]c4ccccc34)NC(=O)[C@H](CSSC[C@H](NC(=O)[C@H](CC(C)C)NC(=O)[C@H](C)N)C(=O)N[C@@H](CC(N)=O)C(=O)N2)NC(=O)[C@H](CCC(N)=O)NC(=O)[C@H](CC(C)C)NC(=O)[C@@H]2CCCN2C(=O)[C@H]([C@@H](C)CC)NC(=O)[C@H]([C@@H](C)CC)NC1=O [Peptide 3, TPN-LQ] (H-ALCNCNRIIIPLQCWKKCGKK-NH2; disulfide 3-14, 5-18; N-terminus and C-terminus assumed) | decreased | 20.9 fold | –
CC[C@H](C)[C@@H]1NC(=O)[C@H](CCCNC(=N)N)NC(=O)[C@H](CCCNC(=N)N)NC(=O)[C@H](CC(N)=O)NC(=O)[C@@H]2CSSC[C@@H](C(=O)NCC(=O)N[C@@H](CCCCN)C(=O)N[C@@H](CCCCN)C(N)=O)NC(=O)[C@H](CCCCN)NC(=O)[C@H](CCCCN)NC(=O)[C@H](Cc3c[nH]c4ccccc34)NC(=O)[C@H](CSSC[C@H](NC(=O)[C@H](CC(C)C)NC(=O)[C@H](C)N)C(=O)N[C@@H](CC(N)=O)C(=O)N2)NC(=O)[C@H](CCC(N)=O)NC(=O)[C@H](Cc2c[nH]cn2)NC(=O)[C@@H]2CCCN2C(=O)[C@H]([C@@H](C)CC)NC1=O [Peptide 2, TPN-RQ] (H-ALCNCNRRIIPHQCWKKCGKK-NH2; disulfide 3-14, 5-18) | decreased spontaneous motor activity | – | 0.61 µM

— PMC7665585, “Antidepressive effect of an inward rectifier K^+ channel blocker peptide, tertiapin-RQ” (PLoS ONE, 2020)
